In PubChem BioAssay AID1918946 (Molecular Pharmacology Branch, DTP, NCI, 2023):

System: 885512-296-R-J2-PDC complex spheroid viability
Assay: Anticancer human tumor 885512-296-R-J2-PDC patient-derived breast carcinoma cell line growth inhibition
Conditions: for IC50: curve of first compound; for viability, T/C: stronger effect = lower value
Outline: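 Multicellular complex spheroids of tumor cells with human endothelial cells (HUVEC) and mesenchymal stem cells; the LSD1 inhibitor iadademstat was combined with standard-of-care or investigational agents. Top concentration at or near clinical Cmax, half-log dilutions; final DMSO ≤0.25%.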

[1] = second compound 0.1 µM, first compound 0.00949 µM
[2] = second compound 0.1 µM, first compound 0.03 µM
[3] = second compound 0.1 µM, first compound 0.0949 µM
[4] = second compound 0.1 µM, first compound 0.3 µM
[5] = second compound 0.1 µM, first compound 0.949 µM
[6] = second compound 0.1 µM, first compound 3 µM
[7] = second compound 0.316 µM, first compound 0.00949 µM
[8] = second compound 0.316 µM, first compound 0.03 µM
[9] = second compound 0.316 µM, first compound 0.0949 µM
[10] = second compound 0.316 µM, first compound 0.3 µM
[11] = second compound 0.316 µM, first compound 0.949 µM
[12] = second compound 0.316 µM, first compound 3 µM
[13] = second compound 1 µM, first compound 0.00949 µM
[14] = second compound 1 µM, first compound 0.03 µM
[15] = second compound 1 µM, first compound 0.0949 µM
[16] = second compound 1 µM, first compound 0.3 µM
[17] = second compound 1 µM, first compound 0.949 µM
[18] = second compound 1 µM, first compound 3 µM
[19] = second compound 3.16 µM, first compound 0.00949 µM
[20] = second compound 3.16 µM, first compound 0.03 µM
[21] = second compound 3.16 µM, first compound 0.0949 µM
[22] = second compound 3.16 µM, first compound 0.3 µM
[23] = second compound 3.16 µM, first compound 0.949 µM
[24] = second compound 3.16 µM, first compound 3 µM
[25] = second compound 10 µM, first compound 0.00949 µM
[26] = second compound 10 µM, first compound 0.03 µM
[27] = second compound 10 µM, first compound 0.0949 µM
[28] = second compound 10 µM, first compound 0.3 µM
[29] = second compound 10 µM, first compound 0.949 µM
[30] = second compound 10 µM, first compound 3 µM
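Further: spheroids exposed to agents for 7 days before viability read.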

SMILES | IC50 (second compound 0.1 µM) [nM] | IC50 (second compound 0.316 µM) [nM] | IC50 (second compound 1 µM) [nM] | IC50 (second compound 3.16 µM) [nM] | IC50 (second compound 10 µM) [nM] | viability, T/C [1] [%] | viability, T/C [2] [%] | viability, T/C [3] [%] | viability, T/C [4] [%] | viability, T/C [5] [%] | viability, T/C [6] [%] | viability, T/C [7] [%] | viability, T/C [8] [%] | viability, T/C [9] [%] | viability, T/C [10] [%] | viability, T/C [11] [%] | viability, T/C [12] [%] | viability, T/C [13] [%] | viability, T/C [14] [%] | viability, T/C [15] [%] | further results
NS(=O)(=O)OCC1CC(n2ccc3c(NC4CCc5ccccc54)ncnc32)CC1O (stereo not given) + NC1CCC(NC2CC2c2ccccc2)CC1 | < 9.49 | < 9.49 | < 9.49 | < 9.49 | < 9.49 | 16.7 | 7.98 | 5.83 | 2.1 | 8.58 | 9.25 | 12.9 | 8.7 | 7.27 | 5.01 | 6.94 | 6.92 | 16.3 | 8.77 | 4.53 | viability, T/C [16]: 4.31%; viability, T/C [17]: 1.23%; viability, T/C [18]: 6.71%; viability, T/C [19]: 14.2%; viability, T/C [20]: 8.91%; viability, T/C [21]: 3.64%; viability, T/C [22]: 1.52%; viability, T/C [23]: 4.11%; viability, T/C [24]: 3.57%; viability, T/C [25]: 10.2%; viability, T/C [26]: 5.83%; viability, T/C [27]: 2.78%; viability, T/C [28]: 1.64%; viability, T/C [29]: 1.08%; viability, T/C [30]: 0.82%
O=C(C=Cc1cccc(S(=O)(=O)Nc2ccccc2)c1)NO + NC1CCC(NC2CC2c2ccccc2)CC1 | 74.6 | 84.5 | 84.7 | 70.7 | 50 | 104 | 80.2 | 42.8 | 19.8 | 13.6 | 17.1 | 112 | 87.6 | 45.6 | 22.4 | 15.7 | 14.6 | 108 | 84.4 | 47.1 | viability, T/C [16]: 19.9%; viability, T/C [17]: 12.3%; viability, T/C [18]: 11.9%; viability, T/C [19]: 90.2%; viability, T/C [20]: 69.2%; viability, T/C [21]: 43.8%; viability, T/C [22]: 24.1%; viability, T/C [23]: 12.7%; viability, T/C [24]: 12.7%; viability, T/C [25]: 90.8%; viability, T/C [26]: 65.5%; viability, T/C [27]: 30.6%; viability, T/C [28]: 17.3%; viability, T/C [29]: 8.4%; viability, T/C [30]: 16.5%
